From US11634390B2, “Agricultural chemicals” (GLOBACHEM NV, priority 2016, dated 2023)

Legend:
Format in all cases: in vivo
[1] = system: Echinochloa crus-galli; assay: Herbicidal screen, post-emergence spray of seedlings in pots: Barnyard grass; settings: Echinochloa crus-galli, post-emergence, 240 h, assessed 10 days after treatment, read-out: percentage increase in necrosis relative to the control
Method: (§1) Compounds were screened at four concentrations (100, 50, 25 and 12.5 g/ha) against four weed species (Stellaria media—Chickweed; Abutilon theophrasti—velvetleaf; Amaranthus retroflexus—common amaranthus; Echinochloa crus-galli—Barnyard grass) and maize as a crop species. Seed were sown in 12.5 cm diameter pots (20 per pot for the weed species and 5 for maize). Seedlings were sprayed with 2 ml of compound two weeks after sowing, with 2 ml water used as the control. Each treatment was replicated three times. Plants were maintained at 20° C. and assessed 10 days after treatment. The assessment was based on the % plant in each pot showing growth. The data is presented in Table 1 in which d represents no detected effect at this concentration; c represents a percentage increase in necrosis relative to the control of 0.1-50; b represents a percentage increase in necrosis of 50-80; and a represents a percentage increase in necrosis of 80-100.

[2] = system: Abutilon theophrasti; assay: Herbicidal screen, post-emergence spray of seedlings in pots: velvetleaf; settings: Abutilon theophrasti, post-emergence, 240 h, assessed 10 days after treatment, read-out: percentage increase in necrosis relative to the control
Method: as §1

[3] = system: Amaranthus retroflexus; assay: Herbicidal screen, post-emergence spray of seedlings in pots: common amaranthus; settings: Amaranthus retroflexus, post-emergence, 240 h, assessed 10 days after treatment, read-out: percentage increase in necrosis relative to the control
Method: as §1

[4] = system: Stellaria media; assay: Herbicidal screen, post-emergence spray of seedlings in pots: Chickweed; settings: Stellaria media, post-emergence, 240 h, assessed 10 days after treatment, read-out: percentage increase in necrosis relative to the control
Method: as §1

[5] = system: maize; assay: Herbicidal screen, post-emergence spray of seedlings in pots: crop species; settings: Zea mays, post-emergence, 240 h, assessed 10 days after treatment, read-out: percentage increase in necrosis relative to the control
Method: as §1

[6] = system: four weed species; assay: Herbicidal screen, summary across the four weed species; settings: summary in words, 12.5-100 g/ha
Method: as §1

| SMILES | pest or weed control at 12.5 g/ha [1] | pest or weed control at 25 g/ha [1] | pest or weed control at 50 g/ha [1] | pest or weed control at 100 g/ha [1] | pest or weed control at 12.5 g/ha [2] | pest or weed control at 25 g/ha [2] | pest or weed control at 50 g/ha [2] | pest or weed control at 100 g/ha [2] | pest or weed control at 12.5 g/ha [3] | pest or weed control at 25 g/ha [3] | pest or weed control at 50 g/ha [3] | pest or weed control at 100 g/ha [3] | pest or weed control at 12.5 g/ha [4] | pest or weed control at 25 g/ha [4] | pest or weed control at 50 g/ha [4] | pest or weed control at 100 g/ha [4] | plant injury at 12.5 g/ha [5] | plant injury at 25 g/ha [5] | plant injury at 50 g/ha [5] | plant injury at 100 g/ha [5] | other results |
| --- | --- | --- | --- | --- | --- | --- | --- | --- | --- | --- | --- | --- | --- | --- | --- | --- | --- | --- | --- | --- | --- |
| Cn1c(C(F)(F)F)cc(=O)n(-c2cc(C(=O)NS(=O)(=O)C3CCCCC3)c(Cl)cc2F)c1=O [Example 14, 2-Chloro-N-(cyclohexylsulfonyl)-4-fluoro-5-(3-methyl-2,6-dioxo-4-(trifluoromethyl)-3,6-dihydropyrimidin-1(2H)-yl)benzamide] | 0.1 to 50% | 0.1 to 50% | 0.1 to 50% | 0.1 to 50% | 50 to 80% | 50 to 80% | 80 to 100% | 80 to 100% | 80 to 100% | 80 to 100% | 80 to 100% | 80 to 100% | 0.1 to 50% | 0.1 to 50% | 50 to 80% | 80 to 100% | 0.1 to 50% | 0.1 to 50% | 0.1 to 50% | 0.1 to 50% | herbicidal activity against the weed species [6]: good activity across several of the weed species |
| Cn1c(C(F)(F)F)cc(=O)n(-c2cc(C(=O)NS(=O)(=O)C3(F)CC3)c(Cl)cc2F)c1=O [Example 16, 2-Chloro-4-fluoro-N-((1-fluorocyclopropyl)sulfonyl)-5-(3-methyl-2,6-dioxo-4-(trifluoromethyl)-3,6-dihydropyrimidin-1(2H)-yl)benzamide] | 0.1 to 50% | 0.1 to 50% | 50 to 80% | 50 to 80% | 0.1 to 50% | 0.1 to 50% | 50 to 80% | 80 to 100% | 0.1 to 50% | 0.1 to 50% | 80 to 100% | 80 to 100% | 0.1 to 50% | 0.1 to 50% | 0.1 to 50% | 80 to 100% | 0.1 to 50% | 0.1 to 50% | 0.1 to 50% | 0.1 to 50% | herbicidal activity against the weed species [6]: good activity across several of the weed species |
| CCC1(S(=O)(=O)NC(=O)c2cc(-n3c(=O)cc(C(F)(F)F)n(C)c3=O)c(F)cc2Cl)CC1 [Example 17, 2-Chloro-N-((1-ethylcyclopropyl)sulfonyl)-4-fluoro-5-(3-methyl-2,6-dioxo-4-(trifluoromethyl)-3,6-dihydropyrimidin-1(2H)-yl)benzamide] | 0.1 to 50% | 50 to 80% | 50 to 80% | 50 to 80% | 0.1 to 50% | 0.1 to 50% | 50 to 80% | 80 to 100% | 0.1 to 50% | 50 to 80% | 80 to 100% | 80 to 100% | 0.1 to 50% | 50 to 80% | 50 to 80% | 80 to 100% | 0.1 to 50% | 0.1 to 50% | 0.1 to 50% | 0.1 to 50% | herbicidal activity against the weed species [6]: good activity across several of the weed species |
